We go through one molecule from US20260256667A1, “ORAL CARE COMPOSITION FOR INCREASING SELF CONFIDENCE” (GIVAUDAN SA, priority 2023, published 2026).

Molecules are shown by their SMILES.

Experiment [1] is described as follows: Breath-freshness self-assessment (three questions) after teeth brushing, home use test. Format: in vivo, human.
Protocol: (§1) Twenty-six participants were pre-screened to ensure that they had no underlying dental problems.
(§2) A repeated measures design, with a randomised repeated trial per product was used. Three toothpastes were prepared with: • Control: peppermint flavour • EC180—150 ppm: peppermint flavour+150 ppm EC180 (concentration in toothpaste) • EC180—250 ppm: peppermint flavour+250 ppm EC180 (concentration in toothpaste)
(§3) Participants were given duplicate tubes of each toothpaste (6 tubes in total). All products were assigned different codes and presented in white tubes to prevent colour as a confounding factor.
(§4) The participants did the test each morning in their homes as per their usual teeth cleaning time (between 7:00 am and 10:00 am) and were asked to refrain from using other oral practices apart from brushing with test product. Testing was done with one product a day with a one-day separation left before testing the next product. A questionnaire was sent to them via an online link for them to complete before teeth cleaning and after teeth cleaning. Responses before teeth cleaning were recorded as their baseline scores.
The data for this test was collected through an online questionnaire set up via SurveyMonkey Audience. The questionnaires on breath-freshness and self-confidence was set up for participants to respond to at the five time-points: (i) pre-brush baseline (ii) 0 minutes immediately post-bush (iii) 30 minutes post-brush (iv) 60 minutes post-brush. A total of 47 datasets per product was input for analysis and 5 incompletes were removed.
Breath freshness was self-evaluated with a set of three questions asking (i) whole mouth clean feel; (ii) natural freshness in mouth; and (lii) cooling sensation in the mouth. […] Breath assessment recorded before teeth brushing was categorized as the baseline measure.
(§5) To evaluate a change effect from the baseline (pre-brush) to the different times post-brush, a mean difference between each time-point to the baseline mean score was calculated to obtain delta values.
A short description of experiment [2]: Self-confidence, 9-item subscale of the modified CSAI-2 questionnaire, after teeth brushing, home use test. It is filed as in vivo, human.
Protocol: Individual's thoughts and feelings in relation to their self-confidence as per their perceived oral health (such as breath) were measured using a 9-item subscale of the modified Competitive State Anxiety Questionnaire (CSAI-2).
The nine items in the Self-confidence scale include five that describe positive expectations (“I feel self-confident”, “I am confident I can meet the challenge”, “I'm confident about performing well”, “I'm confident because I mentally picture myself reaching my goal”, and “I'm confident about coming through under pressure”), and four that describe a generalised feeling of calmness (“I feel calm”, “I feel comfortable”, “I feel secure”, “I feel mentally relaxed”). All items were rated on a 4-point scale anchored by 1 (“Not at all”) and 4 (“Very much so”).
as §1, §2, §3, §4
The questionnaires on breath-freshness and self-confidence was set up for participants to respond to at the five time-points: (i) pre-brush baseline (ii) 0 minutes immediately post-bush (iii) 30 minutes post-brush (iv) 60 minutes post-brush. A total of 47 datasets per product was input for analysis and 5 incompletes were removed.
Self-confidence was measured with the 9-Item subscale of the Modified Competitive State Inventory-2 (CSAI-2). The questionnaire uses a 4-point scale as follows:
1—not at all; 2—somewhat; 3—moderately so; 4—very much so.
as §5
The conditions of experiment [3]: employed in oral care compositions such as mouthwashes or toothpastes; cited from earlier work.
Setting [4] is: 60 minutes from brushing with a toothpaste containing EC180.

As for `CC(C)[C@@H]1CC[C@@H](C)C[C@H]1C(=O)Nc1ccc(CC#N)cc1` [EC180, (1R,2S,5R)—N-(4-cyanomethylphenyl)-p-menthane carboxamide], the “level of breath freshness vs flavoured tooth paste alone” value in experiment [1] (10 minutes after brushing, in a flavoured tooth-paste, FIG. 1) was “same level of breath freshness”. In addition, in experiment [1] (setting [4]), the “breath freshness relative to the initial level” value is given as “about 60%”. Further, in experiment [1] (up to 10 minutes after brushing, toothpaste comprising EC180), the “change of breath freshness compared to immediately after brushing (0 min)” value is given as “only minimally increases”. Besides, in experiment [2] (10 minutes after brushing, in a flavoured tooth-paste, FIG. 2), the “level of self-confidence vs flavoured tooth paste alone” value is reported as “significantly increased”. Further, the “change of level of self-confidence compared to immediately after brushing (0 min)” value in experiment [2] (10 minutes after brushing, toothpaste comprising EC180) is “noticeable increase”. Moreover, in experiment [2] (setting [4]), the “self-confidence compared to the level attained immediately after brushing” value is “more than 80%”. Besides, in experiment [2] (in a flavoured tooth-paste, effect still observed 60 min after brushing), the “period of time the level of self-confidence remained elevated after teeth brushing” value is reported as “up to 30 min”. Further, the cooling effect result in experiment [3] was “strong and long-lasting cooling effect”.
